Assays:
Format in all cases: in vivo
Abutilon theophrasti [1] = assay: Pre-emergence herbicidal action, ABUTH; set-up: key to Herbicidal action against ABUTH: % activity: 100 = plants have died, 0 = like control plants
How it was run: (§1)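 Seeds were covered with sandy loam soil, then received a pre-emergence surface spray of the WP- or EC-formulated compound. After 3 weeks under good greenhouse growth conditions, damage was scored visually in percent.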

Stellaria media = assay: Pre-emergence herbicidal action, STEME; settings: dosage 320 g/ha, scored visually after 3 weeks vs untreated controls (100% = plants have died)
How it was run: as §1

Amaranthus retroflexus [2] = assay: Post-emergence herbicidal action, AMARE; set-up: key: % herbicidal action vs untreated; 100 = plants died, 0 = like control; settings: post-emergence, dosage 80 g/ha
How it was run: (§2)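 Visual % damage versus untreated plants, scored about 3 weeks post-spray (100% = dead, 0% = like control). Greenhouse plants in sandy loam were treated at one-leaf stage with WP/EC formulations in water at 600 to 800 l/ha plus 0.2% wetting agent.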

Matricaria inodora [3] = assay: Pre-emergence herbicidal action, MATIN; settings: dosage 320 g/ha, scored visually after 3 weeks vs untreated controls (100% = plants have died)
How it was run: as §1

Hordeum murinum = assay: Pre-emergence herbicidal action, HORMU; settings: dosage 320 g/ha, scored visually after 3 weeks vs untreated controls (100% = plants have died)
From the text: (§3) 1. Pre-Emergence Herbicidal Action Against Harmful Plants Seeds of monocotyledonous and dicotyledonous weed plants and crop plants are laid out in sandy loam soil in wood-fiber pots and covered with soil. The compounds of the invention, formulated in the form of wettable powders (WP) or as emulsion concentrates (EC), are then applied to the surface of the covering soil in the form of an aqueous suspension or emulsion at a water application rate equating to 600 to 800 l/ha, with addition of 0.2% wetting agent. After the treatment, the pots are placed in a greenhouse and kept under good growth conditions for the trial plants. The damage to the test plants is scored visually after a test period of 3 weeks by comparison with untreated controls (herbicidal activity in percent (%): 100% activity=the plants have died, 0% activity=like control plants). […] The tables below illustrate, in an exemplary manner, the […] herbicidal action of the compounds according to the invention, the herbicidal activity being stated in percent. [table] In the experiments that follow, herbicidal action of numerous inventive compounds and the known compounds that are structurally closest from D1 (WO 2012/028579 A1) and D2 (WO 2018/202535 A1) were compared under the above-specified conditions by the pre-emergence and post-emergence method. The example numbers given in the tables relate to the compounds disclosed in the respective documents. In addition to the compounds disclosed in D1 and D2, the following compounds V-1 to V-14 that are encompassed by D1 or D2 but are not compounds specified therein were used in the comparative experiments: • V-1: 2-(methylsulfanyl)-3-(methylsulfinyl)-N-(1-methyl-1H-tetrazol-5-yl)-4-(trifluoromethyl)benzamide • V-2: 2-(methylsulfanyl)-3-(methylsulfonyl)-N-(1-methyl-1H-tetrazol-5-yl)-4-(trifluoromethyl)benzamide • V-3: 2,3-bis(ethylsulfanyl)-N-(1-methyl-1H-tetrazol-5-yl)-4-(trifluoromethyl)benzamide • V-4: 2-chloro-3-(ethylsulfanyl)-N-(1-methyl-1H-tetrazol-5-yl)-4-(trifluoromethyl)benzamide • V-5: 2-chloro-4-iodo-3-(methylsulfanyl)-N-(1-methyl-1H-tetrazol-5-yl)benzamide • V-6: 2-chloro-4-iodo-3-(methylsulfinyl)-N-(1-methyl-1H-tetrazol-5-yl)benzamide • V-7: 2-chloro-4-iodo-3-(methylsulfonyl)-N-(1-methyl-1H-tetrazol-5-yl)benzamide • V-8: 2-bromo-3-(methylsulfanyl)-N-(1-methyl-1H-tetrazol-5-yl)-4-(trifluoromethyl)benzamide • V-9: 2-bromo-3-(methylsulfinyl)-N-(1-methyl-1H-tetrazol-5-yl)-4-(trifluoromethyl)benzamide • V-10: 2-bromo-3-(methylsulfonyl)-N-(1-methyl-1H-tetrazol-5-yl)-4-(trifluoromethyl)benzamide • V-11: 2-bromo-3-(ethylsulfanyl)-N-(1-methyl-1H-tetrazol-5-yl)-4-(trifluoromethyl)benzamide • V-12: 2-bromo-3-(ethylsulfinyl)-N-(1-methyl-1H-tetrazol-5-yl)-4-(trifluoromethyl)benzamide • V-13: 2-bromo-3-(ethylsulfonyl)-N-(1-methyl-1-1H-tetrazol-5-yl)-4-(trifluoromethyl)benzamide • V-14: 2-cyclopropyl-3-(ethylsulfanyl)-N-(1-methyl-1H-tetrazol-5-yl)-4-(trifluoromethyl)benzamide Herbicidal Pre-Emergence Action: […]

Abutilon theophrasti [4] = assay: Post-emergence herbicidal action, ABUTH; set-up: key: % herbicidal action vs untreated; 100 = plants died, 0 = like control; settings: post-emergence, dosage 80 g/ha
How it was run: as §2

Pharbitis purpurea [5] = assay: Post-emergence herbicidal action, PHBPU; settings: post-emergence, dosage 80 g/ha
How it was run: as §2

Echinochloa crus-galli [6] = assay: Pre-emergence herbicidal action, ECHCG
How it was run: as §1

Matricaria inodora [7] = assay: Post-emergence herbicidal action, MATIN; set-up: key: % herbicidal action vs untreated; 100 = plants died, 0 = like control; settings: post-emergence, dosage 80 g/ha
How it was run: as §2

Setaria viridis [8] = assay: Post-emergence herbicidal action, SETVI; set-up: key: % herbicidal action vs untreated; 100 = plants died, 0 = like control; settings: post-emergence, dosage 80 g/ha
How it was run: as §2

Polygonum convolvulus = assay: Pre-emergence herbicidal action, POLCO
From the text: as §3

Viola tricolor = assay: Pre-emergence herbicidal action, VIOTR; settings: dosage 320 g/ha, scored visually after 3 weeks vs untreated controls (100% = plants have died)
How it was run: as §1

Echinochloa crus-galli [9] = assay: Post-emergence herbicidal action, ECHCG; set-up: key: % herbicidal action vs untreated; 100 = plants died, 0 = like control; settings: post-emergence, dosage 80 g/ha
How it was run: as §2

Amaranthus retroflexus [10] = assay: Pre-emergence herbicidal action, AMARE; set-up: key to Herbicidal action against AMARE: % activity: 100 = plants have died, 0 = like control plants
How it was run: as §1

Setaria viridis [11] = assay: Pre-emergence herbicidal action, SETVI; settings: dosage 320 g/ha, scored visually after 3 weeks vs untreated controls (100% = plants have died)
From the text: as §3

Cyperus esculentus = assay: Pre-emergence herbicidal action, CYPES; set-up: key: % activity: 100 = plants have died, 0 = like control plants; settings: comparative experiment, 20 g of a.i./ha
From the text: as §3

Pharbitis purpurea [12] = assay: Pre-emergence herbicidal action, PHBPU; settings: comparative experiment, 20 g of a.i./ha
From the text: as §3

[13] = dosage 320 g/ha, scored visually after 3 weeks vs untreated controls (100% = plants have died)
[14] = comparative experiment, 20 g of a.i./ha

CCn1nnnc1NC(=O)c1ccc(I)c(CSC)c1Cl [Example 2-362]
herbicidal activity ABUTH (Abutilon theophrasti [1]; [13]): 100% | herbicidal activity STEME (Stellaria media): 100% | Herbicidal action against AMARE (Amaranthus retroflexus [2]): 100 | herbicidal activity MATIN (Matricaria inodora [3]): 100% | herbicidal activity HORMU (Hordeum murinum): 90% | Herbicidal action against ABUTH (Abutilon theophrasti [4]): 90 | Herbicidal action against PHBPU (Pharbitis purpurea [5]): 90 | herbicidal activity ECHCG (Echinochloa crus-galli [6]; [13]): 100% | Herbicidal action against MATIN (Matricaria inodora [7]): 100 | Herbicidal action against SETVI (Setaria viridis [8]): 90 | herbicidal activity POLCO (Polygonum convolvulus; [13]): 100% | herbicidal activity VIOTR (Viola tricolor): 100% | Herbicidal action against ECHCG (Echinochloa crus-galli [9]): 100 | herbicidal activity AMARE (Amaranthus retroflexus [10]; [13]): 100% | herbicidal activity SETVI (Setaria viridis [11]): 100%

CSc1c(C(=O)Nc2nnnn2C)ccc(C(F)(F)F)c1[S+](C)[O-] (stereo not drawn) [Example V-1, 2-(methylsulfanyl)-3-(methylsulfinyl)-N-(1-methyl-1H-tetrazol-5-yl)-4-(trifluoromethyl)benzamide, reference compound]
Herbicidal action against ABUTH (Abutilon theophrasti [1]; [14]): 0 | Herbicidal action against CYPES (Cyperus esculentus): 50 | Herbicidal action against PHBPU (Pharbitis purpurea [12]): 0 | pest or weed control at 20 g/ha (Echinochloa crus-galli [6]; Echinochloa crus-galli, 504 h, comparative experiment, 20 g of a.i./ha, read-out: Herbicidal action against ECHCG): 50% | Herbicidal action against POLCO (Polygonum convolvulus; [14]): 0 | Herbicidal action against AMARE (Amaranthus retroflexus [10]; [14]): 60

From US12492173B2, “Herbicidal substituted N-tetrazolyl aryl carboxamides” (Bayer Aktiengesellschaft, priority 2019, dated 2025)
